From publication PMC3048469 (FEBS letters, 2011)
Read-outs that look alike come from different tables or passages of the source.

Target: Rv1086 (Mycobacterium tuberculosis, UniProt P9WFF5)
Format: biochemical
Conditions: 5 mM MgCl2, pH 7.0, 37 °C

Sequence of Rv1086 (P9WFF5 whole entry): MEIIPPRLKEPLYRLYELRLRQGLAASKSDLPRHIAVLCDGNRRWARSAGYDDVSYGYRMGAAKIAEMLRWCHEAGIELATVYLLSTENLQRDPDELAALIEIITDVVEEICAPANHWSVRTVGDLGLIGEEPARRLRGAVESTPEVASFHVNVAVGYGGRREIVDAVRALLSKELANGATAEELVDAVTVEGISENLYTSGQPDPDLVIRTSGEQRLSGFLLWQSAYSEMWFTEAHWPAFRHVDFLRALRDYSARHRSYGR

Structure (SMILES)	GC-MS of dephosphorylated product (100 μM DMAPP, 100 μM IPP, 0.3% Triton X-100)	GC-MS of dephosphorylated product (100 μM GPP, co-substrate IPP)
CC(C)=CCOP(=O)(O)OP(=O)(O)O [DMAPP]	(Z,E)-FPP also was produced by Rv1086 from IPP and DMAPP in the absence of Rv0989	–
CC(C)=CCC/C(C)=C/COP(=O)(O)OP(=O)(O)O [GPP]	–	Rv1086 assayed in the presence of authentic GPP, GPP synthesized by Rv0989c, or DMAPP
